Results from ChEMBL document CHEMBL1147325, “13C-nmr spectral assignment and evaluation of the cytotoxic potential of rotenone” (1989).
Converted amounts (≈) assume the structure as drawn.

Key:
Type in all cases: functional
[1] = Cytotoxicity against human BC1 cells after 72 hrs; settings: BC1, 72 h, read-out: ED50 (the source's name)
Col2 = experiment: Cytotoxicity against human Col2 cells after 72 hrs; settings: Col2, 72 h, read-out: ED50 (the source's name)
HT-1080 = experiment: Cytotoxicity against human HT1080 cells after 48 hrs; settings: HT-1080, 48 h, read-out: ED50 (the source's name)
Lu1 = experiment: Cytotoxicity against human Lu1 cells; settings: read-out: ED50 (the source's name)
SK-MEL-2 = experiment: Cytotoxicity against human SK-MEL-2 cells after 72 hrs; settings: SK-MEL-2, 72 h, read-out: ED50 (the source's name)
KB = experiment: Cytotoxicity against human KB cells after 72 hrs; settings: read-out: ED50 (the source's name)
P388 = experiment: Cytotoxicity against mouse P388 cells after 48 hrs; settings: P388, 48 h, read-out: ED50 (the source's name)

**Q.** What does the source list for C=C(C)[C@H]1Cc2c(ccc3c2O[C@@H]2COc4cc(OC)c(OC)cc4[C@@H]2C3=O)O1 [ROTENONE]?
**A.** EC50 [1]: 0.039 µg/mL (≈ 0.0989 µM); EC50 (Col2): 0.15 µg/mL (≈ 0.38 µM); EC50 (HT-1080): 0.047 µg/mL (≈ 0.119 µM); EC50 (Lu1): 0.044 µg/mL (≈ 0.112 µM); EC50 (SK-MEL-2): 0.092 µg/mL (≈ 0.233 µM); EC50 (KB): 0.067 µg/mL (≈ 0.17 µM); EC50 (P388): 0.005 µg/mL (≈ 0.0127 µM)
